The record followed here is patent US12458647B2, “Macrocyclic derivative and use thereof” (Guangzhou Joyo Pharmatech Co., Ltd., priority 2022, dated 2025).

In experiment [1] the test system is p-ERK level in AsPC-1 cells. Nature of the experiment: Detection of p-ERK level in AsPC-1 cells (HTRF). The following applies: 3 hours incubation; read-out: AsPC-1 pERK IC50. Type of experiment: cell-based. The protocol:
AsPC-1 cells were purchased from ATCC: RPMI-1640 medium was purchased from Gibco; fetal bovine serum was purchased from Hyclone; Advanced Phospho-ERK1/2(THR202/TYR204) KIT was purchased from Bioauxilium-Advanced Phospho; ERK1/2(THR202/TYR204) KIT components were: Advanced PhosphoERK1/2 Eu Cryptate antibody, Advanced PhosphoERK1/2 d2 antibody, Blocking reagent (stock solution 100×), Lysis buffer #1 (stock solution 4×). Detection buffer (ready-to-use), with a storage temperature of ≤−16° C. for all.
(1) The cells were seeded in a white-bottomed 384-well cell culture plate, 8 μL of cell suspension per well, each well containing 7,500 cells. The cell plate was placed in a carbon dioxide incubator and incubated overnight at 37° C.;
(2) The test compound was diluted with 100% DMSO to 3 mM as the first concentration, and then diluted with a pipette to 10 concentrations of 3,000, 1,000, 300, 100, 30, 10, 3, 1, 0.3 and 0.1 μM. 2 μL of the compound was taken and added to 198 μL of cell starvation medium, mixed well, 15 μl, of compound solution was taken and added to 35 μL of cell starvation medium and mixed well. […]
(5) After incubation, a multilabel plate reader was used to read the HTRF excitation: 320 nm, emission: 615 nm, and 665 nm. […]
Background: In TR-FRET formats the signal depends on donor and acceptor labels being close together.

Experiment [2] has as its system human pancreatic cancer PK59 cells. Nature of the experiment: In vivo pharmacodynamic study, PK59 subcutaneous xenograft tumor model in BALB/c nude mice. The following applies: gavage once daily. The protocol: To study the in vivo efficacy of a compound of the present disclosure in BALB/c nude mice subcutaneous xenograft tumor model of human pancreatic cancer PK59 cells.
Laboratory animals: Female BALB/c nude mice, 6-8 weeks old, weighing 18-22 g; supplier. Beijing Vital River Laboratory Animal Technology Co., Ltd.
(1) Cell culture. Human pancreatic cancer PK59 cells were cultured in vitro in a monolayer, and the culture conditions were 10% fetal bovine serum added to Gibco RMPI1640 medium, incubated at 37° C. in a 5% CO2 incubator. Routine passage was performed twice a week with trypsin-EDTA for digestion. When the cell saturation was 80%-90% and the required number was reached, the cells were collected, counted, and inoculated.
(2) Tumour cell inoculation and grouping: 0.2 mL (2×10^6) of PK59 cells (Matrigel was added in a volume ratio of 1:1) was subcutaneously inoculated into the right back of each mouse, and dosing was started when the mean tumor volume reached about 104.4 mm^3, with 6 animals in each group.
The vehicle was 5% DMSO/10% solutol/85% water. Control group: The vehicle was administered via gavage once daily at a dose of 10 μL/g; treatment group: After dissolving the test compound in the vehicle, the compound was administered by gavage once daily.
(3) The tumor diameter was measured with a vernier caliper twice weekly, and the tumor volume (V) was calculated. The formula is: V=0.5a×b^2, where a and b are the long and short diameters of the tumor, respectively. The tumor inhibitory efficacy of the test compound was evaluated by the tumor growth inhibition rate (TGI). The calculation formula is: TGI %=[1−(Mean tumor volume at the end of dosing in a treatment group−Mean tumor volume at the start of dosing in this treatment group)/(Mean tumor volume at the end of treatment in the vehicle control group−Mean tumor volume at the start of treatment in the vehicle control group)×100%.

The structures appear in SMILES notation.

For orientation: IC50 means the point on the concentration scale where inhibition reaches its midpoint. Consider `CCn1c(-c2cc(N3CCN(C)CC3)cnc2C(C)OC)c2c3cc(ccc31)-c1csc(n1)CC(NC(=O)C1C(C)C1C)C(=O)N1NC(C(=O)OCC(C)(C)C2)C2CC1C2` (single isomer, unassigned) [Compound 6A], for which the IC50 in experiment [1] was 0.3 nM. In experiment [2] (0.5 mpk), the “Tumour Volume (mm^3) Day 1” value is recorded as 103.6 mm^3, the “Tumour Volume (mm^3) Day 7” value came out at 111.0 mm^3, the “Tumour Volume (mm^3) Day 14” value was 112.4 mm^3 and the “TGI (%) Day 22” value is 101%. The “Tumour Volume (mm^3) Day 22” value in experiment [2] (0.5 mpk) came to 96.4 mm^3. Also, in experiment [2] (2 mpk), the “Tumour Volume (mm^3) Day 1” value was determined as 103.5 mm^3, the “Tumour Volume (mm^3) Day 7” value is recorded as 64.3 mm^3, the “Tumour Volume (mm^3) Day 14” value worked out at 45.5 mm^3 and the “TGI (%) Day 22” value amounted to 107%. For the same compound, the “Tumour Volume (mm^3) Day 22” value in experiment [2] (2 mpk) was determined as 43.3 mm^3. Moreover, in experiment [2] (5 mpk), the “Tumour Volume (mm^3) Day 1” value is 103.8 mm^3, the “Tumour Volume (mm^3) Day 7” value was 65.0 mm^3, the “Tumour Volume (mm^3) Day 14” value was determined as 35.7 mm^3 and the “TGI (%) Day 22” value is listed as 108%. Further, the “Tumour Volume (mm^3) Day 22” value in experiment [2] (5 mpk) was found to be 34.3 mm^3.
